The source of these data is patent US10745382B2 (BRISTOL-MYERS SQUIBB COMPANY, priority 2015, dated 2020).

For orientation: IC50 means the concentration that gives 50% inhibition.

For one assay, the target named is T1, PD-1/PD-L1 (Homo sapiens, UniProt Q9NZQ7).
T1 construct: made in house; host or cells: HEK293T
T1 sequence (Q9NZQ7 with tags, fused parts or gaps): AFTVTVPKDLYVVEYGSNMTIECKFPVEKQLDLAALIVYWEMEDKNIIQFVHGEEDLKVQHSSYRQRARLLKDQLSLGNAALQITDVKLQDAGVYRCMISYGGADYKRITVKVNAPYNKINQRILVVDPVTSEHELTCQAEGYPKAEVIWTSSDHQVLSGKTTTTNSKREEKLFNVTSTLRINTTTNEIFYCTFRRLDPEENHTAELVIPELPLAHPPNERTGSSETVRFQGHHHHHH
The assay is described as follows: PD-1/PD-L1 Homogenous Time-Resolved Fluorescence (HTRF) binding assay. To be noted: PD-L1-His 10 nM, PD-1-Ig 20 nM; numeric IC50; read-out: Range or IC50. In a few lines:
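Binding was measured by HTRF in dPBS with 0.1% BSA and 0.05% Tween-20. Detection used europium cryptate anti-Ig (1 nM final) and APC anti-His (20 nM final) added over the binding reaction.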
In the case of `CCOC(=O)C1(CO)CCN(CCCOc2cccc(-c3cccc(COc4cc(OCc5cncc(C#N)c5)c(CN5CCC(CO)(C(=O)OCC)C5)cc4Cl)c3C)c2Cl)C1` (stereo not shown) [Example 1102, ethyl 1-(3-((2-chloro-3′-((2-chloro-5-((5-cyanopyridin-3-yl)methoxy)-4-((3-(ethoxycarbonyl)-3-(hydroxymethyl)pyrrolidin-1-yl)methyl)phenoxy)methyl)-2′-methyl-[1,1′-biphenyl]-3-yl)oxy)propyl)-3-(hydroxymethyl)pyrrolidine-3-carboxylate], the IC50 stood at 2.8 nM.

The assay is the same for the next values; noted with them: PD-L1-His 10 nM, PD-1-Ig 20 nM; value given as range class; read-out: Range or IC50.
In the case of `Cc1c(COc2cc(OCc3cncc(S(C)(=O)=O)c3)c(CN[C@](C)(CO)C(=O)O)cc2Cl)cccc1-c1cccc(OCCCN2CC[C@@H](C(=O)O)C2)c1C` [Example 1083, (R)-1-(3-((3′-((4-((((R)-2-carboxy-1-hydroxypropan-2-yl)amino)methyl)-2-chloro-5-((5-(methylsulfonyl)pyridin-3-yl)methoxy)phenoxy)methyl)-2,2′-dimethyl-[1,1′-biphenyl]-3-yl)oxy)propyl)pyrrolidine-3-carboxylic Acid], the IC50 is 0.21 to 10 nM.
For `Cc1c(COc2cc(OCc3cncc(S(C)(=O)=O)c3)c(CN3CCCC[C@H]3C(=O)O)cc2Cl)cccc1-c1cccc(OCCCN2CC[C@@H](C(=O)O)C2)c1C` [Example 1084, (S)-1-(4-((3′-(3-((R)-3-carboxypyrrolidin-1-yl)propoxy)-2,2′-dimethyl-[1,1′-biphenyl]-3-yl)methoxy)-5-chloro-2-((5-(methylsulfonyl)pyridin-3-yl)methoxy)benzyl)piperidine-2-carboxylic Acid], the IC50 fell in the range of 0.21 to 10 nM.
The same measure, in the same setting: with `Cc1c(COc2cc(OCc3cncc(C#N)c3)c(CN3CCCC[C@H]3C(=O)O)cc2Cl)cccc1-c1cccc(OCCCN2C[C@H](O)C[C@H]2C(N)=O)c1Cl` [Example 1085, (S)-1-(4-((3′-(3-((2S,4R)-2-carbamoyl-4-hydroxypyrrolidin-1-yl)propoxy)-2′-chloro-2-methyl-[1,1′-biphenyl]-3-yl)methoxy)-5-chloro-2-((5-cyanopyridin-3-yl)methoxy)benzyl)piperidine-2-carboxylic Acid] the figure was 0.21 to 10 nM.
Turning to `Cc1c(COc2cc(OCc3cncc(C#N)c3)c(CN[C@](C)(CO)C(=O)O)cc2Cl)cccc1-c1cccc(OCCCN2C[C@H](O)C[C@H]2C(N)=O)c1Cl` [Example 1086, (R)-2-((4-((3′-(3-((2S,4R)-2-carbamoyl-4-hydroxypyrrolidin-1-yl)propoxy)-2′-chloro-2-methyl-[1,1′-biphenyl]-3-yl)methoxy)-5-chloro-2-((5-cyanopyridin-3-yl)methoxy)benzyl)amino)-3-hydroxy-2-methylpropanoic Acid], the IC50 was 0.21 to 10 nM.
On to `Cc1c(COc2cc(OCc3cncc(C#N)c3)c(CN3CCCC[C@H]3C(=O)O)cc2Cl)cccc1-c1cccc(OC/C=C/CN2CC[C@@H](O)C2)c1` [Example 1087, (S)-1-(5-chloro-2-((5-cyanopyridin-3-yl)methoxy)-4-((3′-(((E)-4-((R)-3-hydroxypyrrolidin-1-yl)but-2-en-1-yl)oxy)-2-methyl-[1,1′-biphenyl]-3-yl)methoxy)benzyl)piperidine-2-carboxylic Acid], for which the IC50 was 10 to 100 nM.
Same read-out and setting: with `Cc1c(COc2cc(OCc3cncc(C#N)c3)c(CN3CCCC[C@H]3C(=O)O)cc2Cl)cccc1-c1cccc(OCCCN2CC[C@@](O)(c3ccc(Cl)cc3)[C@](C)(O)C2)c1Cl` [Example 1088, (S)-1-(5-chloro-4-((2′-chloro-3′-(3-((3R,4R)-4-(4-chlorophenyl)-3,4-dihydroxy-3-methylpiperidin-1-yl)propoxy)-2-methyl-[1,1′-biphenyl]-3-yl)methoxy)-2-((5-cyanopyridin-3-yl)methoxy)benzyl)piperidine-2-carboxylic Acid] the figure was 0.21 to 10 nM.
The same measure, in the same setting: under `Cc1c(COc2cc(OCc3cncc(C#N)c3)c(CN[C@H](CO)C(=O)O)cc2Cl)cccc1-c1cccc(OCCCN2CC[C@@](O)(c3ccc(Cl)cc3)[C@](C)(O)C2)c1Cl` [Example 1089, (5-chloro-4-((2′-chloro-3′-(3-((3R,4R)-4-(4-chlorophenyl)-3,4-dihydroxy-3-methylpiperidin-1-yl)propoxy)-2-methyl-[1,1′-biphenyl]-3-yl)methoxy)-2-((5-cyanopyridin-3-yl)methoxy)benzyl)-D-serine] stands 0.21 to 10 nM.
Same read-out and setting: under `Cc1c(COc2cc(OCc3cncc(S(C)(=O)=O)c3)c(CN3CCCC[C@H]3C(=O)O)cc2Cl)cccc1-c1cccc(OCCCN2CC[C@H](O)C2)c1C` [Example 1090, (S)-1-(5-chloro-4-((3′-(3-((S)-3-hydroxypyrrolidin-1-yl)propoxy)-2,2′-dimethyl-[1,1′-biphenyl]-3-yl)methoxy)-2-((5-(methylsulfonyl)pyridin-3-yl)methoxy)benzyl)piperidine-2-carboxylic Acid] stands 0.21 to 10 nM; under `COC(=O)C1(O)CCN(CCCOc2cccc(-c3cccc(COc4cc(OCc5cncc(C#N)c5)c(CN5CCC(O)(C(=O)OC)CC5)cc4Cl)c3C)c2C)CC1` [Example 1091, methyl 1-(5-chloro-2-((5-cyanopyridin-3-yl)methoxy)-4-((3′-(3-(4-hydroxy-4-(methoxycarbonyl)piperidin-1-yl)propoxy)-2,2′-dimethyl-[1,1′-biphenyl]-3-yl)methoxy)benzyl)-4-hydroxypiperidine-4-carboxylate], 0.21 to 10 nM; under `Cc1cc(OCCCCN2CC[C@@H](O)C2)ccc1-c1cccc(COc2cc(OCc3cncc(C#N)c3)c(CN[C@H](CO)C(=O)O)cc2Cl)c1C` [Example 1092, (5-chloro-2-((5-cyanopyridin-3-yl)methoxy)-4-((4′-(4-((R)-3-hydroxypyrrolidin-1-yl)butoxy)-2,2′-dimethyl-[1,1′-biphenyl]-3-yl)methoxy)benzyl)-D-serine], 0.21 to 10 nM.
For the compound `Cc1cc(OCCCCN2CC[C@@H](O)C2)ccc1-c1cccc(COc2cc(OCc3cncc(C#N)c3)c(CN3CCCC[C@H]3C(=O)O)cc2Cl)c1C` [Example 1093, (S)-1-(5-chloro-2-((5-cyanopyridin-3-yl)methoxy)-4-((4′-(4-((R)-3-hydroxypyrrolidin-1-yl)butoxy)-2,2′-dimethyl-[1,1′-biphenyl]-3-yl)methoxy)benzyl)piperidine-2-carboxylic Acid], the IC50 was 0.21 to 10 nM.
Still for that read-out and setting: under `Cc1c(COc2cc(OCc3cncc(C(N)=O)c3)c(CN[C@](C)(CO)C(=O)O)cc2Cl)cccc1-c1cccc(OCCCN2CCC(O)(C(=O)O)CC2)c1C` [Example 1094, (R)-1-(3-((3′-((5-((5-carbamoylpyridin-3-yl)methoxy)-4-(((2-carboxy-1-hydroxypropan-2-yl)amino)methyl)-2-chlorophenoxy)methyl)-2,2′-dimethyl-[1,1′-biphenyl]-3-yl)oxy)propyl)-4-hydroxypiperidine-4-carboxylic Acid] stands 0.21 to 10 nM; under `CCOC(=O)C1(O)CCN(CCCOc2cccc(-c3cccc(COc4cc(OCc5cncc(C#N)c5)c(CN[C@@H](CO)C(=O)O)cc4Cl)c3C)c2Cl)CC1` [Example 1095, (5-chloro-4-((2′-chloro-3′-(3-(4-(ethoxycarbonyl)-4-hydroxypiperidin-1-yl)propoxy)-2-methyl-[1,1′-biphenyl]-3-yl)methoxy)-2-((5-cyanopyridin-3-yl)methoxy)benzyl)-L-serine], 0.21 to 10 nM; under `Cc1c(COc2cc(OCc3cncc(C#N)c3)c(CN3CCCC[C@H]3C(=O)O)cc2Cl)cccc1-c1cccc(OCCCN2CCC(O)(C(=O)O)CC2)c1Cl` [Example 1097, (S)-1-(4-((3′-(3-(4-carboxy-4-hydroxypiperidin-1-yl)propoxy)-2′-chloro-2-methyl-[1,1′-biphenyl]-3-yl)methoxy)-5-chloro-2-((5-cyanopyridin-3-yl)methoxy)benzyl)piperidine-2-carboxylic Acid], 0.21 to 10 nM.
On the same count and under the same terms, under `CCOC(=O)C1(O)CCN(CCCOc2cccc(-c3cccc(COc4cc(OCc5cncc(C#N)c5)c(CN[C@](C)(CO)C(=O)O)cc4Cl)c3C)c2Cl)CC1` [Example 1098, (R)-2-((5-chloro-4-((2′-chloro-3′-(3-(4-(ethoxycarbonyl)-4-hydroxypiperidin-1-yl)propoxy)-2-methyl-[1,1′-biphenyl]-3-yl)methoxy)-2-((5-cyanopyridin-3-yl)methoxy)benzyl)amino)-3-hydroxy-2-methylpropanoic Acid] stands 0.21 to 10 nM.
Regarding `Cc1c(COc2cc(OCc3cncc(C#N)c3)c(CN[C@](C)(CO)C(=O)O)cc2Cl)cccc1-c1cccc(OCCCN2CCC(O)(C(=O)O)CC2)c1Cl` [Example 1099, (R)-1-(3-((3′-((4-(((2-carboxy-1-hydroxypropan-2-yl)amino)methyl)-2-chloro-5-((5-cyanopyridin-3-yl)methoxy)phenoxy)methyl)-2-chloro-2′-methyl-[1,1′-biphenyl]-3-yl)oxy)propyl)-4-hydroxypiperidine-4-carboxylic Acid], the IC50 lay in the range of 0.21 to 10 nM.
Same read-out and setting: under `CCOC(=O)C1(O)CCN(CCCOc2cccc(-c3cccc(COc4cc(OCc5cncc(C#N)c5)c(CN5CCCC[C@H]5C(=O)O)cc4Cl)c3C)c2Cl)CC1` [Example 1100, (S)-1-(5-chloro-4-((2′-chloro-3′-(3-(4-(ethoxycarbonyl)-4-hydroxypiperidin-1-yl)propoxy)-2-methyl-[1,1′-biphenyl]-3-yl)methoxy)-2-((5-cyanopyridin-3-yl)methoxy)benzyl)piperidine-2-carboxylic Acid] stands 0.21 to 10 nM; under `CCOC(=O)C1(CO)CCN(CCCOc2cccc(-c3cccc(COc4cc(OCc5cncc(C#N)c5)c(CN5CCCC[C@H]5C(=O)O)cc4Cl)c3C)c2Cl)C1` (stereo partly drawn) [Example 1101, (2S)-1-(5-chloro-4-((2′-chloro-3′-(3-(3-(ethoxycarbonyl)-3-(hydroxymethyl)pyrrolidin-1-yl)propoxy)-2-methyl-[1,1′-biphenyl]-3-yl)methoxy)-2-((5-cyanopyridin-3-yl)methoxy)benzyl)piperidine-2-carboxylic Acid], 0.21 to 10 nM.
